According to article PMC12045974, “T cell toxicity induced by tigecycline binding to the mitochondrial ribosome” (Nature Communications, 2025):
Several values for one entry are separate records, joined by “and”; a condition that tells them apart may be missing. Equal entries are not always repeated. Where two headings read alike, the source gives them in different places.

Experiments:
[1] = test system: mitochondrial translation; test: 35S metabolic labeling, de novo mitochondrial translation assay in Jurkat T cells; format: cell-based, human; conditions: 5 μM, 18 h of treatment
Description: Jurkat T cells were seeded in 6-well plates at a density of 1 million cells/ml and cultured with different concentrations of antibiotics for 18 h in RPMI-1640 medium (with 10% FBS, 2.05 mM L-glutamine (Sigma), and 55 μM 2-ME (Gibco)). After centrifugation, cells were incubated twice for 5 min at 37 °C in Cys-/Met-free medium (DMEM, high glucose, no glutamine, no methionine, no cysteine, supplemented with 10% dialyzed fetal bovine serum, 1× GlutaMax, and sodium pyruvate), followed by 20 min incubation at 37 °C in Cys-/Met-free medium supplemented with 100 µg/ml emetine to inhibit cytosolic translation (only for mitochondrial translation groups). Subsequently, 1 ml Cys-/Met-free medium supplemented with 200 (for cytosolic translation) or 400 µCi (for mitochondrial translation) of EasyTag EXPRESS [^35S] protein labeling mix (methionine and cysteine) (Perkin Elmer) were added to each sample and incubated for 20 min at 37 °C, 5% CO2. Following labeling, cells were washed three times with 1 ml PBS, harvested by centrifugation (400 × g, 10 min, 4 °C), and stored at −20 °C. Cells were lysed by resuspension in 30 µl PBS supplemented with a Complete EDTA-free protease inhibitor cocktail and 50 U Benzonase nuclease (Sigma) and by application of one freeze-thaw cycle. Protein contents were determined by Pierce BCA assay (Thermo Fisher). […]

Jurkat T cells = test: Cell viability assay (CCK-8), Jurkat T cells; format: cell-based, human; conditions: 72 h; for cell vialibity normalized to Vehicle (DMSO): Jurkat, Fig. 1A, in % (unit assumed)
Outline: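 This CCK-8 viability assay used Jurkat T cells seeded at 6000 per well and grown in supplemented RPMI-1640, 100 μl per well. Antibiotic stocks in DMSO were diluted in medium to give 9 concentrations, and untreated wells received matching DMSO. After treatment, cells were incubated with 10% CCK-8 for 3 h. Results were normalized to vehicle, technical repeats were plotted as mean ± SEM, and IC50 values were derived.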

PBMCs = test: Cell viability assay (CCK-8), PBMCs; format: cell-based, human; conditions: 72 h
Outline: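 Buffy-coat PBMCs were seeded at 15,000 cells/well in RPMI-1640 with 10% FBS, 2.05 mM L-glutamine and 55 μM 2-ME. Cells were exposed for 72 h at 37 °C, 5% CO2 to 9 concentrations, up to 300 μM for tetracyclines and up to 900 μM for other inhibitors, with DMSO controls. CCK-8 read after 4 h; IC50 from dose-response curves.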

HeLa cells = test: Cell viability assay (CCK-8), HeLa cells; format: cell-based; conditions: 10 μM
Outline: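 Viability of HeLa cells was measured with Cell Counting Kit-8 after treatment with drug dilutions in 96-well plates (2000 cells/well, DMEM plus 10% FBS and 2.05 mM L-glutamine, humidified 37 °C, 5% CO2). Untreated wells received equal DMSO. After 1 h CCK-8 incubation, technical-repeat dose-response curves were plotted and IC50 values calculated in GraphPad Prism.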

[2] = Homo sapiens, PBMC, PBMCs, Fig. 1A, read-out: cell vialibity normalized to Vehicle (DMSO)
[3] = Homo sapiens, PBMC, PBMCs, Fig. 1B, read-out: cell vialibity normalized to Vehicle (DMSO)

`CN(C)c1cc(NC(=O)CNC(C)(C)C)c(O)c2c1C[C@H]1C[C@H]3[C@H](N(C)C)C(O)=C(C(N)=O)C(=O)[C@@]3(O)C(O)=C1C2=O` [Tigecycline, tigecycline] was tested. Which “inhibition of mitochondrial translation” value [1] did it give?
The value was “inhibited mitochondrial translation”.

And the IC50 (Jurkat T cells; Homo sapiens, Jurkat T cells, after 3 days of treatment, read-out: IC50 (cell survival))?
Its IC50 is 2.94 to 3.08 µM.

What about the “cell vialibity normalized to Vehicle (DMSO)” value (from here on “cell vialibity normalized”) (Jurkat T cells; dose 0.0457247 μM) of the same compound?
The value was 109.956 and 111.249 and 111.849.

And the “cell vialibity normalized” value (Jurkat T cells; dose 0.137174 μM)?
The value was 103.553 and 105.77 and 101.862.

What about the “cell vialibity normalized” value (Jurkat T cells; dose 0.411523 μM) of the same compound?
The value was 97.7193 and 94.1885 and 95.1333.

What about the “cell vialibity normalized” value (Jurkat T cells; dose 1.23457 μM) of the same compound?
The value was 79.9123 and 80.3238 and 79.0851.

What about the “cell vialibity normalized” value (Jurkat T cells; dose 3.7037 μM) of the same compound?
The value was 38.8158 and 37.5675 and 38.722.

And the “cell vialibity normalized” value (Jurkat T cells; dose 11.1111 μM)?
The value was 18.2456 and 17.144 and 16.3775.

And the “cell vialibity normalized” value (Jurkat T cells; dose 33.3333 μM)?
Its value is 11.1842 and 10.0457 and 10.0296.

And the “cell vialibity normalized” value (Jurkat T cells; dose 100 μM)?
The value was 4.123 and 3.321 and 4.232.

What about the “cell vialibity normalized” value (Jurkat T cells; dose 300 μM) of the same compound?
Its value is 2.237 and 2.989 and 2.158.

And the “toxicity to PBMCs in comparison with other bacterial protein synthesis inhibitors” value (PBMCs; Fig. 1B)?
The value was “greatest toxicity to PBMCs”.

And the viability at 0.137174 µM (PBMCs; Homo sapiens, PBMC, PBMCs, dose 0.137174 μM, Fig. 1B, read-out: cell vialibity normalized to Vehicle (DMSO))?
Its viability at 0.137174 µM is 103%.

What about the viability at 0.411523 µM (PBMCs; [2]) of the same compound?
The viability at 0.411523 µM was 83.9%.

And the viability at 0.411523 µM (PBMCs; [3])?
Its viability at 0.411523 µM is 89.9%.

And the viability at 1.23457 µM (PBMCs; [2])?
Its viability at 1.23457 µM is 75.3%.

What about the viability at 1.23457 µM (PBMCs; [3]) of the same compound?
The viability at 1.23457 µM was 65.1%.

And the viability at 3.7037 µM (PBMCs; Homo sapiens, PBMC, PBMCs, dose 3.7037 μM, Fig. 1B, read-out: cell vialibity normalized to Vehicle (DMSO))?
Its viability at 3.7037 µM is 39.4%.

What about the viability at 11.1111 µM (PBMCs; Homo sapiens, PBMC, PBMCs, dose 11.1111 μM, Fig. 1A, read-out: cell vialibity normalized to Vehicle (DMSO)) of the same compound?
The viability at 11.1111 µM was 44.2%.

What about the viability at 33.3333 µM (PBMCs; [2]) of the same compound?
Its viability at 33.3333 µM is 38.8%.

And the viability at 33.3333 µM (PBMCs; [3])?
The viability at 33.3333 µM was 21.2%.

And the viability at 100 µM (PBMCs; [2])?
Its viability at 100 µM is 20.8%.

And the viability at 100 µM (PBMCs; [3])?
Its viability at 100 µM is 17.6%.

What about the IC50 (PBMCs; Homo sapiens, PBMC, PBMCs, after 3 days of treatment, read-out: IC50 (cell survival)) of the same compound?
Its IC50 is 2.02 to 9.42 µM.

What about the HeLa cell survival (HeLa cells) of the same compound?
The HeLa cell survival was “relatively resistant”.
